The values that follow come from US5502065A, “Indole derivatives as 5-HT1 -like agonists” (Pfizer Inc., priority 1992, dated 1996).

Usually EC50 stands for the concentration at which the effect is half-maximal.

Like-named read-outs stand apart in the source and are kept apart here.

In one experiment the test system is carotid vascular bed. As to conditions: anaesthetized dog, cited from earlier work.
Experiment [1] has as its target T1, "5-HT1 -like" receptor (Canis lupus familiaris, UniProt P79250).
T1 construct: dog isolated saphenous vein strip; from tissue; host or cells: dog isolated saphenous vein strip
Put plainly: contraction of dog isolated saphenous vein strip ("5-HT1 -like" receptor agonist activity). As to conditions: for Emax: read-out: […] RELATIVE TO 5-HT RESPONSE, relative to 5-HT response, read-out: PERCENTAGE AGONISM RELATIVE TO 5-HT RESPONSE
The procedure: The in vitro evaluation of the "5-HT1 -like" receptor agonist activity of the compounds of the formula (I) is carried out by testing the extent to which they mimic sumatriptan in contracting the dog isolated saphenous vein strip (P. P. A. Humphrey et al., .Br. J. Pharmacol., 94, 1123 (1988)).
The in vitro evaluation of the "5-HT1 -like" receptor agonist activity of the compounds of the invention is carried out by testing the extent to which they mimic sumatriptan in contracting the isolated dog saphenous vein strip (P. P. A. Humphrey et al., Brit. J. Pharmacol., 1988, 94, 1123).
EC50 represents the concentration of compound which causes 50% of the maximum contraction effected by it.

The target in experiment [2] is T1, "5-HT1 -like" receptor. The conditions noted are these: dog isolated saphenous vein strip; cited from earlier work.
[3] abbreviates: dog isolated saphenous vein strip.

T1 sequence (P79250 whole entry): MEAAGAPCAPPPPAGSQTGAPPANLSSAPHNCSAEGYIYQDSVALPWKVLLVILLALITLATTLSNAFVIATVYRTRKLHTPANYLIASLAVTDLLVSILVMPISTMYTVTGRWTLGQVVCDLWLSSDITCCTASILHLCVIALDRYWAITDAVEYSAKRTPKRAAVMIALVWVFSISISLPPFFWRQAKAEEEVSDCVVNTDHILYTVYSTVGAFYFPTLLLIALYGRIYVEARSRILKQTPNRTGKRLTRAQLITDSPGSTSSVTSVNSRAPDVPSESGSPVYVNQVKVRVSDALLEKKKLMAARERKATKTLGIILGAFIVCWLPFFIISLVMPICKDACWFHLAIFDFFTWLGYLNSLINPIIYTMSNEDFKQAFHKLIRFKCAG

Consider `CNS(=O)(=O)Cc1ccc2[nH]cc(CCN(C)C)c2c1` [Sumatriptan], for which the carotid vascular resistance entry in the experiment on carotid vascular bed is “selective increase”. Also, in the experiment with carotid vascular bed (consequent on increased carotid vascular resistance), the “carotid arterial blood flow” value is on record as “decrease”.

In the case of `CN(C)C(=O)CCN1CCC[C@@H]1Cc1c[nH]c2ccc(-c3cccc(C(=O)N(C)C)c3)cc12` [Example 46, 3-1-(2-N,N-dimethylcarbamoylethyl)pyrrolidin-2(R)-ylmethyl!5-(3-N,N-dimethylcarbamoylphenyl)-1H-indole], on "5-HT1 -like" receptor [1] (dog isolated saphenous vein strip, concentration of compound which causes 50% of the maximum contraction effected by it, read-out: EC50), the EC50 worked out at 0.16 µM. In addition, the Emax on "5-HT1 -like" receptor [1] (setting [3]) stood at 78%.

Turning to `CN1CCC[C@@H]1Cc1c[nH]c2ccc(-c3cncc(C#N)c3)cc12` [Example 53], the EC50 on "5-HT1 -like" receptor [1] turned out to be 0.026 µM. For the same compound, the Emax at "5-HT1 -like" receptor [1] (setting [3]) is 75%.

`OCc1ccc(-c2ccc3[nH]cc(C[C@H]4CCCN4)c3c2)cc1` [Example 37, 5-(4-Hydroxymethylphenyl)-3-(pyrrolidin-2(R)-ylmethyl)-1H-indole] had an EC50 on "5-HT1 -like" receptor [1] of 0.076 µM. At "5-HT1 -like" receptor [1] (setting [3]), the Emax was found to be 72%.

As for `c1ncc(-c2ccc3[nH]cc(C[C@H]4CCCN4CC4CC4)c3c2)cn1` [Example 60, 3-(1-Cyclopropylmethylpyrrolidin-2(R)-ylmethyl)-5-(5-pyrimidinyl)-1H-indole], the EC50 at "5-HT1 -like" receptor [1] worked out at 0.0092 µM. The Emax on "5-HT1 -like" receptor [1] (setting [3]) came to 105%.

The compound `CN1CCC[C@@H]1Cc1c[nH]c2ccc(-c3ccc(C(N)=O)s3)cc12` [Example 64, 5-(5-Carbamoyl-2-thienyl)-3-(1-methylpyrrolidin-2(R)-ylmethyl)-1H-indole] had an EC50 on "5-HT1 -like" receptor [1] of 0.025 µM. The Emax on "5-HT1 -like" receptor [1] (setting [3]) is 79%.

In the case of `CN1CCC[C@@H]1Cc1c[nH]c2ccc(-c3ccc(CO)o3)cc12` [Example 66, 5-(5-Hydroxymethyl-2-furyl)-3-(1-methylpyrrolidin-2(R)-ylmethyl)-1H -indole], the EC50 at "5-HT1 -like" receptor [1] was determined as 0.019 µM. The Emax on "5-HT1 -like" receptor [1] (setting [3]) amounted to 80%.

Regarding `CSc1ccc2c(c1)C(N1CCN(C)CC1)Cc1ccccc1S2` (centres unmarked) [methiothepin], the “block of saphenous vein contraction (5-HT antagonism)” value on "5-HT1 -like" receptor [2] is recorded as “can be blocked”.

`CN1CCC[C@@H]1Cc1c[nH]c2ccc(-c3cccc(S(N)(=O)=O)c3)cc12` [Example 3]: a half-maximal effect on "5-HT1 -like" receptor [1] (EC50) was put at 0.00378 µM. Moreover, the Emax at "5-HT1 -like" receptor [1] (setting [3]) was found to be 85%.
